In test [1] the test system is NPSR1. As to the kind of experiment: NPSR1 antagonist SHA68 against NPS-evoked calcium signals in NPSR1-expressing hippocampus neurons. It is filed as cell-based, human.
For test [2], the system named is NPSR1. The following applies: cited from earlier work.
A further test deals with IP3R. In words: IP3 receptor antagonist 2-APB against NPS-evoked calcium signals. It is filed as cell-based, mouse.
The test system of test [3] is transient receptor potential channel family. The settings on record: cited from earlier work. An excerpt: In previous in vitro studies, NPSR1 has been expressed in HEK293 or CHO cells. These studies focused on comparing NPS and NPSR1 variants with respect to their Gαq and Gαs activity, i.e. their efficiency to induce intracellular calcium responses and cAMP production upon receptor stimulation, analyzing population responses from plate readers instead of confocal single-cell calcium imaging.

Test [4] concerns ryanodine receptors (RyR). In words: Ryanodine receptor contribution to NPS-evoked calcium signals. The settings on record: NPS 500 nM, mean ± SD. It is filed as cell-based, mouse.
The target in test [5] is T1, human neuropeptide S receptor (NPSR1) (Homo sapiens, UniProt Q6W5P4).
T1 construct: expressed in transfected cells; host or cells: primary hippocampal neurons of P0-P2 C57BL/6 mice, transduced with AAV6 AAV-NPSR1-TS-mCherry-ER (hSyn promoter)
T1 sequence (Q6W5P4 1-371): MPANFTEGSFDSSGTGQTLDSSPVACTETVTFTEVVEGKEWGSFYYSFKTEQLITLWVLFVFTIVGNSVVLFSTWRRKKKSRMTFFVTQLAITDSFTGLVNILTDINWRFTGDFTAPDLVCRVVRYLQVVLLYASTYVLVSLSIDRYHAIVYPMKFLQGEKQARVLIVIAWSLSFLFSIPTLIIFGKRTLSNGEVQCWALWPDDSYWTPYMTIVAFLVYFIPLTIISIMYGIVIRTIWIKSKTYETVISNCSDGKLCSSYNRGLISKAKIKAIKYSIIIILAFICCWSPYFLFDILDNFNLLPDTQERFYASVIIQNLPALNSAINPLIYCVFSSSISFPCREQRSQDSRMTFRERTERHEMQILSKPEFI
In words: Single-cell calcium imaging (Fluo4) of NPS-evoked calcium signals in hippocampus neurons expressing NPSR1-mCherry. It is filed as cell-based.

The test system of test [6] is untransfected hippocampus neurons. In words: Calcium imaging of NPS in untransfected hippocampus neurons (control). It is filed as cell-based, mouse. The following applies: NPS 500 nM, 936 untransfected neurons.
The subject of the next test is SERCA-ATPases. In words: SERCA inhibition with CPA: calcium leakage and effect on NPS-evoked calcium signals. It is filed as cell-based, mouse.
The subject of test [7] is NPSR1-expressing hippocampus neurons, influx of extracellular calcium. In words: NPS-evoked calcium signals in calcium-free solution / slow component (calcium influx). It is filed as cell-based, mouse. The following applies: NPS 500 nM, mean ± SD.
In test [8] the test system is store-operated calcium entry (SOCE). In words: Store-operated calcium entry on re-addition of Ca2+ after NPS in calcium-free solution. The following applies: NPS 500 nM, n = 47 cells, mean ± SD. It is filed as cell-based, mouse.
In test [9] the test system is SOCE. In words: SOCE blockers on slow component of NPSR1-evoked calcium signals. It is filed as cell-based, mouse. The settings on record: NPS 500 nM.
Test [10] relates to voltage activated calcium channels (Cav). As to the kind of experiment: Cav blocker cocktail on NPS-evoked calcium signals. It is filed as cell-based, mouse. The following applies: NPS 500 nM, first application, 148 neurons; mean ± SD.
Test [11] concerns Colo205 cells expressing NPSR1. The settings on record: cited from earlier work. An excerpt:
(§1) Despite these numerous biological functions, little is known about the molecular mechanisms underlying NPS receptor activity. […] However, the intracellular pathways downstream to NPSR1 activation have not been identified in deta ...

The test system of another test is human NPSR1 variants. The following applies: HEK293 or CHO cells; ref [1],[10],[23]–[25]; cited from earlier work.
From the text: as §1

Test [12] deals with NPSR1-mediated calcium signals (action potentials suppressed). It is filed as cell-based, mouse.
Test [13] relates to SOCE. On the set-up: method as in PMID 12149283, PMID 2173565, PMID 18285445, PMID 21541286. The settings on record: non-excitable cells and neurons; ref [36]–[38], [39]; cited from earlier work.
Another test relates to STIM-mediated SOCE. The following applies: HeLa cells overexpressing STIM1; ref [50]; cited from earlier work. An excerpt: Store-operated calcium channels (SOCs) responsible for SOCE are known to be composed by the calcium release-activated calcium modulator 1 (ORAI) and members of the transient receptor potential type c (TRPC) channel families. Channel-activation is induced by interaction with the ER calcium sensor stromal interaction molecule (STIM).

Setting [14] is: repeated NPS 500 nM, 675 s interval, 111 neurons, mean ± SD, ANOVA p = 0.0133.

“Also recorded” adds a separate entry of the source. Where a SMILES comes first, the peptide text is derived from it.

On to `O=C(NCc1ccc(F)cc1)N1CCN2C(=O)OC(c3ccccc3)(c3ccccc3)C2C1` (centres unmarked) [SHA68, 3-oxo-1,1-diphenyl-tetrahydro-oxazolo[3,4-a]pyrazine-7-carboxylic acid 4-fluoro-benzylamide], for which, in the test on NPSR1 [1], the “effect of SHA68 on NPS-evoked Ca2+ signals” value is “NPS application failed to induce Ca^2+ signals in the same neurons; also recorded: reduced the effect of NPS to a level non-significantly different from baseline”, the “normalized mean fluorescence amplitude evoked by NPS after washout of SHA68” value came to 1.2 ± 1.6 and the “normalized mean fluorescence amplitude evoked by NPS in presence of SHA68” value is 0.5 ± 0.7. Moreover, in the test with NPSR1 [2], the “effect on NPS-mediated calcium mobilization” value is “blocks NPS-mediated calcium mobilization”.
Take 2-aminoethoxydiphenyl borate [2-APB]: in the test with IP3R, the “effect of 2-APB on responses to NPS” value was “prevented responses to NPS”, the “normalized mean fluorescence amplitude evoked by NPS after 2-APB washout” value was determined as 2.2 ± 2.13 and the “normalized mean fluorescence amplitude evoked by NPS in presence of 2-APB” value came out at 0.39 ± 0.61. Further, the “modulation of transient receptor potential channel family members” value in [3] is reported as “modulates several members of the transient receptor potential channel family”.
ryanodine: the “normalized mean fluorescence amplitude evoked by NPS in presence of ryanodine” value in test [4] (ryanodine 50 μM (300 s pre-incubation), 136 neurons, ANOVA p < 0.0001) came out at 0.51 ± 0.37. In addition, in [4] (ryanodine 50 μM, t-test vs control p < 0.0001), the “amplitude of second NPS application normalized to the first, RyRs blocked” value is recorded as 0.24 ± 0.25.
`CSCC[C@H](NC(=O)CNC(=O)[C@@H](NC(=O)CNC(=O)[C@@H](NC(=O)CNC(=O)[C@H](CC(N)=O)NC(=O)[C@H](CCCNC(=N)N)NC(=O)[C@H](Cc1ccccc1)NC(=O)[C@@H](N)CO)C(C)C)[C@@H](C)O)C(=O)N[C@@H](CCCCN)C(=O)N[C@@H](CCCCN)C(=O)N[C@H](C(=O)N[C@@H](CO)C(=O)N[C@@H](Cc1ccccc1)C(=O)N[C@@H](CCC(N)=O)C(=O)N[C@@H](CCCNC(=N)N)C(=O)N[C@@H](C)C(=O)N[C@@H](CCCCN)C(=O)N[C@@H](CO)C(=O)O)[C@@H](C)O` [NPS, neuropeptide S] (H-SFRNGVGTGMKKTSFQRAKS-OH; N-terminus and C-terminus assumed): the “increase in normalized mean fluorescence (f/f0) over baseline” value in test [5] stood at 3.5 ± 2.9. Moreover, the “rise time of NPSR1-dependent calcium signal (5–95% of max)” value in test [5] (NPS 500 nM, initial rapid component, mean ± SD) was 9.47 ± 5.77 s. Moreover, the “decay time of NPSR1-dependent calcium signal (95–5% of max)” value in test [5] (NPS 500 nM, slower recovery phase, mean ± SD) is 132.71 ± 94.11 s. In [5] (setting [14]), the “normalized mean fluorescence amplitude, 1st application” value is 3.6 ± 3.1; the “normalized mean fluorescence amplitude, 2nd application” value is recorded as 3.2 ± 3.3; the “normalized mean fluorescence amplitude, 3rd application” value was 2.4 ± 2.3. In the test on NPSR1 [1] (NPS 250 nM, 204 neurons, mean ± SD), the “normalized mean fluorescence amplitude, NPS before SHA68” value is given as 2.9 ± 1.8. For the same compound, the “calcium response to NPS in untransfected neurons” value in test [6] is recorded as “no increase in normalized mean fluorescence intensity could be detected; also recorded: calcium responses could not be detected”. The “mean fluorescence amplitude evoked by NPS before CPA” value with SERCA-ATPases (NPS 500 nM, 397 neurons, mean ± SD) is recorded as 4.4 ± 2.69. Further, the “normalized mean fluorescence amplitude evoked by NPS, first application before 2-APB” value with IP3R (NPS 500 nM, 166 neurons, mean ± SD) turned out to be 3.86 ± 2.34. Further, the “normalized mean fluorescence amplitude evoked by NPS prior to ryanodine” value in test [4] (136 neurons) came out at 2.7 ± 1.48. For the same compound, in test [4] (155 control neurons), the “normalized mean fluorescence amplitude, control recordings without ryanodine, first NPS application” value was found to be 2.35 ± 1.9 and the “normalized mean fluorescence amplitude, control recordings without ryanodine, second NPS application” value worked out at 1.74 ± 1.4. In test [4] (no ryanodine), the “amplitude of second NPS application normalized to the first, control cells” value is 0.77 ± 0.35. Besides, in test [7] (3 mM CaCl2, 229 cells), the “integral of response amplitude over time, slow component, control conditions” value is reported as 36.6 ± 8.3 x 10^4 (arbitrary units). The “integral of response amplitude over time, slow component, Ca2+-free solution” value in test [7] (Ca2+-free, 5 mM EGTA, 65 neurons, t-test p < 0.0001) is given as 23.4 ± 3.9 x 10^4 (arbitrary units). Also, the “amplitude of initial fast component of NPS-evoked calcium signal, calcium-free conditions” value in test [7] (nominally calcium-free, 5 mM EGTA, 65 neurons, t-test vs control p = 0.1054) is given as 2.9 ± 1.9. Moreover, in test [8] (ANOVA p < 0.0001), the “integral of response amplitude after re-addition of Ca2+, NPS applied once again under Ca2+-free conditions” value is 5.9 ± 4.9 x 10^4 (arbitrary units). In addition, the “integral of response amplitude after re-addition of Ca2+, first NPS application under calcium-free conditions” value in [8] (control without NPS 2.1 ± 3.2 x 10^4) is recorded as 14.8 ± 7.2 x 10^4 (arbitrary units). In the test on SOCE [9] (229 cells, mean ± SD), the “integral of response amplitude of slow component, control conditions (no SOCE blocker)” value was 36.6 ± 8.3 x 10^4 (arbitrary units). In addition, the “integral of response amplitude during recovery phase, control conditions” value in test [10] is listed as 36.2 ± 7.5 x 10^4 (arbitrary units). In addition, in the test with PLC, the “mean fluorescence amplitude evoked by NPS, first application before U73122” value was 3.44 ± 1.27. In [11], the “cell proliferation and MAP kinase phosphorylation” value was “dose-dependent stimulation of cell proliferation and MAP kinase phosphorylation”. Also, in the test on human NPSR1 variants, the “calcium mobilization and cAMP accumulation” value was “elicit calcium mobilization and cAMP accumulation”.
As for `CC(O)=C1C(=O)C2C3c4cccc5[nH]cc(c45)CC3C(C)(C)N2C1=O` (centres unmarked) [CPA, cyclopiaconic acid], the “normalized mean amplitude evoked by NPS after CPA” value with SERCA-ATPases (CPA 30 μM (500–650 s), NPS 500 nM, n = 397, mean ± SD, vs baseline p = 0.9992) was 0.27 ± 0.4. The “transient increase in cytosolic calcium evoked by CPA (fluorescence amplitude)” value with SERCA-ATPases (CPA 30 μM, 397 neurons, mean ± SD) stood at 1.6 ± 1.17. Besides, in the test on SERCA-ATPases (CPA 30 μM, NPS 500 nM, n = 397, ANOVA p < 0.0001), the “effect of CPA on NPSR1-mediated calcium signals” value was “abolished NPSR1-mediated calcium signals”.
Turning to `NC1=N[C@H](O)[C@H]2[C@H]3O[C@]4(O)O[C@@H]([C@@H](O)[C@@]2(N1)[C@@H]4O)[C@]3(O)CO` [TTX, tetrodotoxin], the “effect of TTX on NPSR1-mediated calcium signals” value in [12] is reported as “not affected”.
For the compound `COc1ccc2c(c1)CC[C@@H]1[C@@H]2CC[C@]2(C)[C@@H](NCCCCCCN3C(=O)C=CC3=O)CC[C@@H]12` [U73122], in the test on PLC, the “effect of U73122 on NPS-mediated calcium release” value is reported as “abolished NPS-mediated calcium release”; the “mean fluorescence amplitude when U73122 and NPS were co-applied” value worked out at 0.14 ± 0.14.
Regarding `COc1ccc(CCCOC(Cn2ccnc2)c2ccc(OC)cc2)cc1` (centres unmarked) [SKF96365], the “effect on duration and amplitude of slow component of NPSR1-evoked calcium signals” value in the test on SOCE [9] (ML-9 50 μM, SKF96365 15 μM) was “consistently reduced the duration and amplitude of the slow component”. Further, the “integral of response amplitude of slow component in presence of SKF96365” value in the test with SOCE [9] (SKF96365 15 μM (300 s pre-incubation), 127 cells, mean ± SD) is recorded as 30.42 ± 3.8 x 10^4 (arbitrary units). Besides, the “inhibition of SOCE” value in the test with SOCE [13] is “inhibit SOCE”. The “inhibition of STIM-mediated SOCE” value with STIM-mediated SOCE was “inhibit STIM-mediated SOCE”.

The values above are taken from article PMC4340626, “Neuronal Expression of the Human Neuropeptide S Receptor NPSR1 Identifies NPS-Induced Calcium Signaling Pathways” (PLoS ONE, 2015).
